From patent US9789101B2, “Methods and compositions for treating microbial infection using pyrroloquinone” (HELPERBY THERAPEUTICS LIMITED, priority 2010, dated 2017)

Columns and labels:
[1] = tested on: log phase Staphylococcus aureus; test: Chequerboard analysis of HT00800059 and mupirocin against log phase Staphylococcus aureus; assay type: cell-based, Staphylococcus aureus (Oxford)
Procedure: Staphylococcus aureus (Oxford); Gram positive; Reference strain. Log phase growth of […] sensitive Staphylococcus aureus (MSSA) was carried out as follows: • Bacteria were grown in 10 ml of nutrient broth (No. 2, (Oxoid)) overnight at 37° C. with continuous shaking at 120 rpm. […] The cultures were incubated at 37° C. with shaking for 1-2 hours to reach log CFU 6. Viability of the bacteria was estimated by colony forming unit (CFU) counts. From serial 10-fold dilutions of the experimental cultures, 100 μl samples were added to triplicate plates of nutrient agar plates (Oxoid) or blood agar plates (Oxoid). CFUs were counted after incubation of the plates at 37° C. for 24 hours. […] 290 μl of the cell suspension was added to each well of the 96 well plate, which was incubated at 37° C. for 24 hours. […] MIC determination: The optical density of the bacterial cells was read at 405 nm using a plate reader (Bio TEK). The MIC concentration was determined as the lowest concentration of drug which inhibits the bacterial growth. […] HT00800059 was dissolved in H2O to the stock solution 30.07 mg/ml. […] HT00800059 (30.7 mg/ml) was performed in a serial of 2 fold dilutions. This was followed by the addition of 280 μl of log phase culture at 10^6 CFU/ml to make the final concentrations of each drug as shown. In the above table, values in bold text are for HT00800059. Values in plain text are for mupirocin. The numbers shown in each well are μg/ml. Incubation of the compounds with the bacterial suspension was carried out for 24 hours. The kill effects of the drug combination were measured by optical density reading at 405 nm with a plate reader (Bio TEK). The fractional inhibitory concentration (FIC) index was carried out as following: (MIC of drug A, tested in combination)/(MIC of drug A, tested alone)+(MIC of drug B, tested in combination)/(MIC of drug B, tested alone). The interaction was defined as synergistic if the FIC index was <1, additive if the FIC index was =1 and antagonistic if the FIC index was >1.

[2] = tested on: Mupirocin Resistant S. aureus (28 Passages); test: Chequerboard analysis of HT00800059 and mupirocin against mupirocin resistant S. aureus (28 passages); assay type: cell-based, Staphylococcus aureus; settings: for optical density reading at 405 nm: HT00800059 μg/ml: 1024,512,256,128,64,32,16,0, 24 hours
Procedure: (§1) Staphylococcus aureus (Oxford); Gram positive; Reference strain.
(§2) Log phase growth of mupirocin resistant Staphylococcus aureus (MSSA) was carried out as follows: • Bacteria were grown in 10 ml of nutrient broth (No. 2, (Oxoid)) overnight at 37° C. with continuous shaking at 120 rpm. The overnight cultures were diluted 1000× with iso-sensitest broth. The cultures were incubated at 37° C. with shaking for 1-2 hours to reach log CFU 6. Viability of the bacteria was estimated by colony forming unit (CFU) counts. From serial 10-fold dilutions of the experimental cultures, 100 μl samples were added to triplicate plates of nutrient agar plates (Oxoid) or blood agar plates (Oxoid). CFUs were counted after incubation of the plates at 37° C. for 24 hours.
(§3) Bacterial cultures: 10 μl of overnight cultures was added to 10 ml of fresh iso-sensitest broth to make the inoculation to 10^6 CFU/ml. 290 μl of the cell suspension was added to each well of the 96 well plate, which was incubated at 37° C. for 24 hours. 300 μl of iso-sensitest broth without bacterial cells were added to wells of the plate as a no bacterial control.
(§4) MIC determination: The optical density of the bacterial cells was read at 405 nm using a plate reader (Bio TEK). The MIC concentration was determined as the lowest concentration of drug which inhibits the bacterial growth.
(§5) Mupirocin was dissolved in DMSO to the stock concentration of 10 mg/ml. HT00800059 was dissolved in H2O to the stock solution 30.07 mg/ml.
(§6) Mupirocin (10 mg/ml) was firstly diluted to 3.84 mg/ml, then further diluted in a serial of 2 fold dilutions. HT00800059 (30.7 mg/ml) was performed in a serial of 2 fold dilutions.
(§7) This was followed by the addition of 280 μl of log phase culture at 10^6 CFU/ml to make the final concentrations of each drug as shown in Table 1 and Table 2.
(§8) In the above table, values in bold text are for HT00800059. Values in plain text are for mupirocin. The numbers shown in each well are μg/ml.
(§9) Incubation of the compounds with the bacterial suspension was carried out for 24 hours. The kill effects of the drug combination were measured by optical density reading at 405 nm with a plate reader (Bio TEK).
(§10) The fractional inhibitory concentration (FIC) index was carried out as following: (MIC of drug A, tested in combination)/(MIC of drug A, tested alone)+(MIC of drug B, tested in combination)/(MIC of drug B, tested alone). The interaction was defined as synergistic if the FIC index was <1, additive if the FIC index was =1 and antagonistic if the FIC index was >1.

[3] = tested on: Mupirocin Resistant S. aureus (24 Passages); test: Chequerboard analysis of HT00800059 and mupirocin against mupirocin resistant S. aureus (24 passages); assay type: cell-based, Staphylococcus aureus; settings: for optical density reading at 405 nm: HT00800059 μg/ml: 1024,512,256,128,64,32,16,0, 24 hours
Procedure: as §1, §2, §3, §4, §5, §6, §7, §8, §9, §10

[4] = Staphylococcus aureus, read-out: alone MIC

C/C(=C\C(=O)OCCCCCCCCC(=O)O)C[C@@H]1OC[C@H](C[C@@H]2O[C@H]2[C@@H](C)[C@H](C)O)[C@@H](O)[C@H]1O [Mupirocin]
MIC ([1]; Staphylococcus aureus, summary list, read-out: alone MIC): 0.25 µg/mL
MIC before combination ([1]; iso-sensitest broth): 0.25 µg/mL
MIC post combination ([1]; iso-sensitest broth): 0.0625 µg/mL
MIC before combination ([1]; nutrient broth): 0.25 µg/mL
MIC post combination ([1]; nutrient broth): 0.0625 µg/mL
mupirocin MIC in combination ([1]; with HT00800059 at 256 μg/ml): 0.0625 µg/mL
optical density reading at 405 nm ([2]; 28 passages, mupirocin 0.125 μg/ml): 1.255
optical density reading at 405 nm ([2]; 28 passages, mupirocin 0.25 μg/ml): 1.246
optical density reading at 405 nm ([2]; 28 passages, mupirocin 0.5 μg/ml): 1.252
optical density reading at 405 nm ([2]; 28 passages, mupirocin 1 μg/ml): 1.244
optical density reading at 405 nm ([2]; 28 passages, mupirocin 2 μg/ml): 1.208
optical density reading at 405 nm ([2]; 28 passages, mupirocin 4 μg/ml): 1.136
optical density reading at 405 nm ([2]; 28 passages, mupirocin 8 μg/ml): 0.968
optical density reading at 405 nm ([2]; 28 passages, mupirocin 16 μg/ml): 0.726
optical density reading at 405 nm ([2]; 28 passages, mupirocin 32 μg/ml): 0.480
optical density reading at 405 nm ([2]; 28 passages, mupirocin 64 μg/ml): 0.363
optical density reading at 405 nm ([2]; 28 passages, mupirocin 128 μg/ml): 0.346
MIC [2, 4]: 64 µg/mL
MIC before combination ([2]; resistant strain 28 passages): 64 µg/mL
MIC post combination ([2]; resistant strain 28 passages): 4 µg/mL
mupirocin MIC in combination ([2]; with HT00800059 at 256 μg/ml, 28 passages): 4 µg/mL
optical density reading at 405 nm ([3]; 24 passages, mupirocin 0.125 μg/ml): 1.170
optical density reading at 405 nm ([3]; 24 passages, mupirocin 0.25 μg/ml): 1.083
optical density reading at 405 nm ([3]; 24 passages, mupirocin 0.5 μg/ml): 1.109
optical density reading at 405 nm ([3]; 24 passages, mupirocin 1 μg/ml): 1.056
optical density reading at 405 nm ([3]; 24 passages, mupirocin 2 μg/ml): 0.863
optical density reading at 405 nm ([3]; 24 passages, mupirocin 4 μg/ml): 0.629
optical density reading at 405 nm ([3]; 24 passages, mupirocin 8 μg/ml): 0.454
optical density reading at 405 nm ([3]; 24 passages, mupirocin 16 μg/ml): 0.386
optical density reading at 405 nm ([3]; 24 passages, mupirocin 21 μg/ml): 0.359
optical density reading at 405 nm ([3]; 24 passages, mupirocin 64 μg/ml): 0.356
optical density reading at 405 nm ([3]; 24 passages, mupirocin 128 μg/ml): 0.358
MIC [3, 4]: 16 µg/mL
MIC before combination ([3]; resistant strain 24 passages): 16 µg/mL
MIC post combination ([3]; resistant strain 24 passages): 1 µg/mL
mupirocin MIC in combination ([3]; with HT00800059 at 256 μg/ml, 24 passages): 1 µg/mL
